One data set addresses FGFR1 kinase (Homo sapiens (Human), UniProt P11362). Put plainly: Enzymologic experiment of FGFR1 (TR-FRET). Type of data set: biochemical. To be noted: TR-FRET kinase activity. How it is done:
2. Enzymologic Experiment of FGFR1
In this experiment, the inhibitory effect of the compounds on FGFR1 kinase activity was tested by a fluorescence resonance energy transfer (TR-FRET) method, and the half maximal inhibitory concentration (IC50) of the compounds on the FGFR1 kinase activity was determined.
1) 1˜5 μL of FGFR1 enzymatic solution was added to a 384-well plate, and the final concentration of the enzyme was 0.1˜5 nM.
2) 1˜5 μL of diluted solution in gradient of the compound was added.
3) 1˜5 μL of a substrate mixture containing substrate polypeptide with a final concentration of 5˜50 nM and ATP with a final concentration of 10˜200 μM was added.
4) The mixture was incubated for 0.5-3 hours at room temperature.
5) 10 μL of EDTA and a test solution comprising labeled antibody were added, and the plate was incubated for 1 hour at room temperature.
6) The fluorescence signal values of each plate were determined by a microplate reader at 665 nm.
7) The inhibition rates were calculated according to the fluorescence signal values.
The IC50 of the compound was obtained by curve fitting according to the inhibition rates at different concentrations, and the enzymatic activity of the specific example compounds is shown in Table 1.
Background: TR-FRET usually uses a lanthanide donor and a delayed reading to cut background.

Data set [1] can be described thus: Pharmacokinetic (PK) analysis in rats. In kind it is in vivo, Sprague Dawley (SD) rats. The note with it: SD rats, single intragastric administration, 5 mg/kg, plasma; for AUC(0-t): read-out: Area Under Curve AUC0-t; for AUC(0-inf): read-out: Area Under Curve AUC0-∞; for half-life: read-out: Half-Time t1/2 (converted); for Cmax: read-out: Plasma Concentration Cmax. How it is done:
6. Pharmacokinetic (PK) Analysis in Rats
Mode of administration: a single intragastric administration.
Formulation: 0.5% CMC and 1% Tween 80, ultrasonic dissolution.
Sampling points: 0.5, 1, 2, 4, 6, 8 and 24 hours after administration.
1. 1.0 ml of intravenous blood was collected and placed in a K2EDTA test tube.
The blood was centrifuged at room temperature at the speed of 1000˜3000×g for 5˜20 minutes to isolate the plasma, which was then stored at −80° C. 2. 160 μL of acetonitrile were added to 40 μL of plasma sample for precipitation, and then the mixture was centrifuged at the speed of 500˜2000×g for 5˜20 minutes. 3. 100 μL of treated solution were taken, and the concentration of the test compound was analyzed by LC/MS/MS. The LC/MS/MS analytical instrument was AB Sciex API 4000.
Liquid Chromatography Analysis:
Condition of Liquid chromatography: Shimadzu LC-20AD pump
Chromatographic column: phenomenex Gemiu 5 um C18 50×4.6 mm
Mobile phase: Solution A is 0.1% aqueous formic acid solution, and solution B is acetonitrile
Elution time: 0-3.5 minutes, the eluent was as follows:
Mass spectrometry analysis:
Mass spectrometer setup conditions: positive ion electrospray ionization (ESI) mode.

In the next data set the test system is SK-HEP-1 cells. The data set can be described thus: Inhibition of SK-HEP-1 cell proliferation (CellTiter-Glo). To be noted: Homo sapiens, SK-HEP1, 72 hours. Type of data set: cell-based. How it is done: 5. Experiment on the Inhibition of SK-HEP-1 Cell Proliferation
In this experiment, the inhibitory effect of the compounds on SK-HEP-1 cell proliferation was tested by a CellTiter-Glo method, and the half maximal inhibitory concentration (IC50) of the compounds on the activity of cell proliferation was determined.
1) A 96-well cell culture plate was seeded with 50˜100 μL of SK-HEP-1 cell suspension at a density of 1-5×10^4 cells/ml. The culture plate was incubated in an incubator for 16˜24 hours (37° C., 5% CO2).
(§1) 2) Different concentrations of the test compound in a gradient dilution were added to the cells in the culture plate. The culture plate was incubated in an incubator for 72 hours (37° C., 5% CO2).
(§2) 3) 50˜100 μL of CellTiter-Glo reagent were added to each well. Then, the culture plate was shaken or left to stand for 5˜30 minutes at room temperature.
(§3) 4) The chemiluminescence signal values of each plate were determined by a microplate reader.
(§4) 5) The inhibition rates were calculated according to the chemiluminescence signal values.
The IC50 of the compound was obtained by curve fitting according to the inhibition rates at different concentrations, and the cell activity of the specific Example compounds is shown in Table 2.
A general note: In ATP-based viability assays light output follows the ATP content of the culture.

A further data set deals with HuH-7 cells. Put plainly: Inhibition of HuH-7 cell proliferation (CellTiter-Glo). The note with it: Homo sapiens, 72 hours. Type of data set: cell-based. As for the experimental part:
4. Experiment on the Inhibition of HuH-7 Cell Proliferation
In this experiment, the inhibitory effect of the compounds on HuH-7 cell proliferation was tested by a CellTiter-Glo method, and the half maximal inhibitory concentration (IC50) of the compounds on the activity of cell proliferation was determined.
1) A 96-well cell culture plate was seeded with 50˜100 μL of HuH-7 cell suspension at a density of 1-5×10^4 cells/ml. The culture plate was incubated in an incubator for 16˜24 hours (37° C., 5% CO2).
as §1, §2, §3, §4
6) The IC50 of the compound was obtained by curve fitting according to the inhibition rates at different concentrations, and the cell activity of the specific Example compounds is shown in Table 2.

The test system of another data set is Hep 3B cells. The data set can be described thus: Inhibition of Hep 3B cell proliferation (CellTiter-Glo). Type of data set: cell-based. The note with it: Homo sapiens, Hep3B, 72 hours. As for the experimental part: 3. Experiment on the Inhibition of Hep 3B Cell Proliferation
In this experiment, the inhibitory effect of the compounds on Hep 3B cell proliferation was tested by a CellTiter-Glo method, and the half maximal inhibitory concentration (IC50) of the compounds on the activity of cell proliferation was determined.
1) A 96-well cell culture plate was seeded with 50˜100 μL of Hep 3B cell suspension at a density of 1-5×10^4 cells/ml. The culture plate was incubated in an incubator for 16-24 hours (37° C., 5% CO2).
as §1
3) 50-100 μL of CellTiter-Glo reagent were added to each well. Then, the culture plate was shaken or left to stand for 5˜30 minutes at room temperature.
as §3, §4
6) The IC50 of the compound was obtained by curve fitting according to the inhibition rates at different concentrations, and the cell activity of the specific example compounds is shown in Table 2.

Data on eleven compounds can be found in patent US11608332B2, “FGFR4 inhibitor and preparation method and use thereof” (Jiangsu Hansoh Pharmaceutical Group Co., Ltd., priority 2016, dated 2023).

As usually defined, the IC50 is the midpoint of a concentration-inhibition curve. A higher IC50 goes with weaker potency in that assay. One may read the MRT as a mean duration of stay, worked out from the concentration-time curve.

Sequence of FGFR1 kinase (P11362 22-822): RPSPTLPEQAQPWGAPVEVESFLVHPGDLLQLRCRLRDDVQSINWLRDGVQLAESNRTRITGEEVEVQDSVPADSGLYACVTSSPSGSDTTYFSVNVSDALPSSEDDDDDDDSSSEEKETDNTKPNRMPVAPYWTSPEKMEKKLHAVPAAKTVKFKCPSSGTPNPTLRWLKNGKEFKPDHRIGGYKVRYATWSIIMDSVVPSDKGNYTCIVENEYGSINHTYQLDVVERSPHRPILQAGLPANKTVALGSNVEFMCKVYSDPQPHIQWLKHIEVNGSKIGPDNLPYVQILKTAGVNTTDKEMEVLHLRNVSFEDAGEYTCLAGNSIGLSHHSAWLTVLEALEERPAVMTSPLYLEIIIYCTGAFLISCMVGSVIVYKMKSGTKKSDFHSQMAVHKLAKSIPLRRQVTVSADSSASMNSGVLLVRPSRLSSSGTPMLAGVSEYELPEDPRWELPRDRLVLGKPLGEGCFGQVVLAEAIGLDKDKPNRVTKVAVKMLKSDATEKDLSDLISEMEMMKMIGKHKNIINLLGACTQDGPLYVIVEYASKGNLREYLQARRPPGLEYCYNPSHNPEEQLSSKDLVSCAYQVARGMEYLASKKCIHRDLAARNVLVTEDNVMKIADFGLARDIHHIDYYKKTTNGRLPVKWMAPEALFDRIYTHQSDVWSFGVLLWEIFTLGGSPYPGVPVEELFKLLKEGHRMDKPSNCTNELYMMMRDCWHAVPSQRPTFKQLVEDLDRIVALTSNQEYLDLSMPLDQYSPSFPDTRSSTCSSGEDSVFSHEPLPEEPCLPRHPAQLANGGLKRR

Take `COC[C@H](C)Nc1cc(NC(=O)N2CCCc3cc(CN(C)C(=O)[C@H]4CCCO4)c(C=O)nc32)ncc1C#N` [Example 92, N-(5-Cyano-4-(((S)-1-methoxypropan-2-yl)amino)pyridin-2-yl)-7-formyl-6-(((R)—N-methyltetrahydrofuran-2-carboxamido)methyl)-3,4-dihydro-1,8-naphthyridin-1(2H)-carboxamide]: at FGFR1 kinase, the IC50 is > 10000 nM.
Turning to `COCCNc1cc(NC(=O)N2CCCc3cc(CN4CC[C@@H](OC)C4=O)c(C=O)nc32)ncc1C#N` [Example 45, (R)—N-(5-Cyano-4-((2-methoxyethyl)amino)pyridin-2-yl)-7-formyl-6-((3-methoxy-2-carbonylpyrrolidin-1-yl)methyl)-3,4-dihydro-1,8-naphthyridin-1(2H)-carboxamide], the Peak Time tmax in data set [1] turned out to be 2 h. Also, in data set [1] (Sprague-Dawley, rat, po), the AUC(0-t) was determined as 12100 ng·h/mL, the AUC(0-inf) stood at 12300 ng·h/mL, the half-life was 1.1 h and the Cmax stood at 3760 ng/mL. Moreover, the IC50 with SK-HEP-1 cells was > 10000 nM. In the data set on HuH-7 cells, this compound returned an IC50 of 8.3 nM. Moreover, the IC50 in the data set with Hep 3B cells worked out at 1.9 nM.
As for `COCCNc1cc(NC(=O)N2CCCc3cc(CN(C[C@@H]4CCCO4)C(C)=O)c(C=O)nc32)ncc1C#N` [Example 111, (S)—N-(5-Cyano-4-((2-methoxyethyl)amino)pyridin-2-yl)-7-formyl-6-((N-((tetrahydrofuran-2-yl)methyl)acetamido)methyl)-3,4-dihydro-1,8-naphthyridin-1(2H)-carboxamide], the IC50 was > 10000 nM in the data set on SK-HEP-1 cells, 21.5 nM in the data set with HuH-7 cells, 8.3 nM with Hep 3B cells and > 10000 nM against FGFR1 kinase.
As to `CO[C@H]1CCN(c2cc(NC(=O)N3CCCc4cc(CN5CC[C@H](OC)C5=O)c(C=O)nc43)ncc2C#N)C1` [Example 53, N-(5-Cyano-4-((S)-3-methoxypyrrolidin-1-yl)pyridin-2-yl)-7-formyl-6-(((S)-3-methoxy-2-carbonylpyrrolidin-1-yl)methyl)-3,4-dihydro-1,8-naphthyridin-1(2H)-carboxamide], at FGFR1 kinase, the concentration for half-maximal inhibition (IC50) is > 10000 nM.
As for `CN(Cc1cc2c(nc1C=O)N(C(=O)Nc1cc(N[C@@H]3CCOC3)c(C#N)cn1)CCC2)C(=O)[C@H]1CCCO1` [Example 95, N-(5-Cyano-4-(((R)-tetrahydrofuran-3-yl)amino)pyridin-2-yl)-7-formyl-6-(((R)—N-methyltetrahydrofuran-2-carboxamido)methyl)-3,4-dihydro-1,8-naphthyridin-1 (2H)-carboxamide], the IC50 is > 10000 nM in the data set on SK-HEP-1 cells, 12.9 nM in the data set with HuH-7 cells, 2.8 nM in the data set on Hep 3B cells and > 10000 nM against FGFR1 kinase.
On to `COCCNc1cc(NC(=O)N2CCCc3cc(CN(C=O)[C@H]4CCOC4)c(C=O)nc32)ncc1C#N` [Example 114, (S)—N-(5-Cyano-4-((2-methoxyethyl)amino)pyridin-2-yl)-7-formyl-6-((N-(tetrahydrofuran-3-yl)formylamino)methyl)-3,4-dihydro-1,8-naphthyridin-1(2H)-carboxamide], for which the values for the IC50 in the data set with SK-HEP-1 cells, in the data set on HuH-7 cells and with Hep 3B cells were > 10000 nM, 26.7 nM and 8.6 nM, respectively.
`COCCNc1cc(NC(=O)N2CCCc3cc(CN(C[C@H]4CCCO4)C(C)=O)c(C=O)nc32)ncc1C#N` [Example 109, (R)—N-(5-Cyano-4-((2-methoxyethyl)amino)pyridin-2-yl)-7-formyl-6-((N-((tetrahydrofuran-2-yl)methyl)acetamido)methyl)-3,4-dihydro-1,8-naphthyridin-1(2H)-carboxamide]: the IC50 in the data set on SK-HEP-1 cells was > 10000 nM; with HuH-7 cells, 11.1 nM; in the data set on Hep 3B cells, 6 nM; on FGFR1 kinase, > 10000 nM.
For the compound `COCCNc1cc(NC(=O)N2CCCc3cc(CN(C=O)C[C@H]4CCCO4)c(C=O)nc32)ncc1C#N` [Example 110, (R)—N-(5-Cyano-4-((2-methoxyethyl)amino)pyridin-2-yl)-7-formyl-6-((N-((tetrahydrofuran-2-yl)methyl)formylamino)methyl)-3,4-dihydro-1,8-naphthyridin-1(2H)-carboxamide], the concentration for half-maximal inhibition (IC50) with SK-HEP-1 cells was > 10000 nM; in the data set with HuH-7 cells, 28.5 nM; in the data set with Hep 3B cells, 8.3 nM.
For the compound `COC[C@H](C)Nc1cc(NC(=O)N2CCCc3cc(CN4CC[C@H](OC)C4=O)c(C=O)nc32)ncc1C#N` [Example 90, N-(5-Cyano-4-(((S)-1-methoxypropan-2-yl)amino)pyridin-2-yl)-7-formyl-6-(((S)-3-methoxy-2-carbonylpyrrolidin-1-yl)methyl)-3,4-dihydro-1,8-naphthyridin-1(2H)-carboxamide], the IC50 against FGFR1 kinase was > 10000 nM.
`COCCNc1cc(NC(=O)N2CCCc3cc(CN4CCC(OC)C4=O)c(C=O)nc32)ncc1C#N` (stereo not shown) [Example 44, N-(5-Cyano-4-((2-methoxyethyl)amino)pyridin-2-yl)-7-formyl-6-((3-methoxy-2-carbonylpyrrolidin-1-yl)methyl)-3,4-dihydro-1,8-naphthyridin-1(2H)-carboxamide] came in with a Peak Time tmax in data set [1] of 2 h. Besides, in data set [1] (Sprague-Dawley, rat, po), the AUC(0-t) came to 9690 ng·h/mL, the AUC(0-inf) was determined as 9820 ng·h/mL, the half-life is 1 h and the Cmax came to 3010 ng/mL. Besides, the IC50 in the data set with SK-HEP-1 cells was > 10000 nM. Further, the IC50 in the data set on HuH-7 cells turned out to be 6.9 nM. For the same compound, in the data set on Hep 3B cells, the 50% inhibitory concentration (IC50) is 6 nM.
In data set [1], `COC[C@@H](C)Nc1cc(NC(=O)N2CCCc3cc(CN4CC[C@@H](OC)C4=O)c(C=O)nc32)ncc1C#N` [Example 91, N-(5-cyano-4-(((R)-1-methoxypropan-2-yl)amino)pyridin-2-yl)-7-formyl-6-(((R)-3-methoxy-2-carbonylpyrrolidin-1-yl)methyl)-3,4-dihydro-1,8-naphthyridin-1(2H)-carboxamide] gave a Peak Time tmax of 0.5 h. In data set [1] (Sprague-Dawley, rat, po), the AUC(0-t) is 12900 ng·h/mL, the AUC(0-inf) worked out at 13000 ng·h/mL, the half-life was 0.9 h and the Cmax amounted to 2790 ng/mL. Besides, the MRT in data set [1] (Sprague-Dawley, rat, po, read-out: Mean Residence Time MRT) turned out to be 2.8 h. For the same compound, in the data set on SK-HEP-1 cells, the IC50 was > 10000 nM. This compound also returned an IC50 in the data set on HuH-7 cells of 3.3 nM. The compound also had an IC50 with Hep 3B cells of 1.5 nM.
